These results are taken from patent publication US5043154A, “Antibacterial, antiplaque, anticalculus oral composition” (priority 1989, dated 1991).

The nature of test [1]: human clinical tests, reduction of plaque formation. The class given is in vivo.
The subject of another test is Bacteriodes intermedius. Description: Minimum inhibitory concentration (MIC) against Bacteriodes intermedius, in vitro. The class given is cell-based. The method, then: (§1) Slurries and solutions described below are prepared to determine effectiveness in terms of minimum inhibitory concentration (MIC) of various antibacterial agents against a variety of oral bacterial organisms implicated in formation of plaque and leading to gingivitis on dental surfaces. Soft plaque contains about 1.7×10^11 organism/gm. (net weight). The antibacterial agents are admixed with anionic materials, particularly anionic surface active agent often commonly employed in oral compositions and polyphosphate anticalculus agent.
(§2) Minimum inhibitory concentration (MIC) of antibacterial agent is used to evaluate the efficacy of the agent in vitro. […] The smaller the MIC value the greater is the efficacy of the antibacterial agent to inhibit the growth of the bacteria. The in vitro MIC data is related to the efficacy of the dentifrice in vivo since retention and release of antibacterial agent into the oral cavity after toothbrushing is in the range of mcg/ml.

Test [2] concerns Bacteriodes gingivalis. Description: inhibition of growth of Bacteriodes gingivalis by dentifrice extracts. To be noted: dentifrice containing anionic surfactant plus pyrophosphate with enzyme inhibitors Gantrez and NaF. The class given is cell-based. The procedure: The dentifrice described in Example 3A is compared with the same composition except without any TCHE and with added 0.50 parts of water. Aqueous extracts of each dentifrice are prepared as follows: 50 ml of distilled water is added to 1.0 gm of each dentifrice, mixed well for a couple of hours with stirring bar and centrifuged, after which the supernatant is collected as aqueous extract. Antibacterial activity of the dentifrice extracts are evaluated on Bacteriodes gingivalis.

The test system of a further test is Streptococcus mutans. Kind of test: Minimum inhibitory concentration (MIC) against Streptococcus mutans, in vitro. The class given is cell-based. The method, then:
as §1, §2

In test [3] the test system is Bacteriodes gingivalis. Description: Minimum inhibitory concentration (MIC) against Bacteriodes gingivalis, in vitro. The class given is cell-based. The method, then:
as §1, §2

Test [4] deals with Actinobacillus actinomycetemcomitans. Description: Minimum inhibitory concentration (MIC) against Actinobacillus actinomycetemcomitans, in vitro. The class given is cell-based. The method, then:
as §1, §2

Test [5] has as its system four dental plaque organisms. Kind of test: MIC test on the four dental plaque organisms, summary in words. The class given is cell-based. To be noted: without TCHE. The method, then:
as §1, §2

Where [6] appears, read: 0.5% TCHE, 1% SLS, 1% Gantrez, 2% Pyrophosphate and 0.2% NaF in water.

In the case of `N=C(NCCCCCCNC(=N)NC(=N)Nc1ccc(Cl)cc1)NC(=N)Nc1ccc(Cl)cc1` [CH, chlorhexidine digluconate], the reducing plaque formation entry in test [1] (0.1% CH and 1% sodium N-lauroyl sarcosinate dissolved in water) is given as “is not”; in test [1] (0.1% CH dissolved in water), “effective in reducing plaque formation”.

Regarding `CC(C)(C)CC(C)(C)c1ccc(OCCOCC[N+](C)(C)Cc2ccccc2)cc1` [BTC, benzethonium chloride], the reducing plaque formation entry in test [1] (0.075% BTC and 1% pyrophosphate dissolved in water) is “is not”; in test [1] (0.075% BTC dissolved in water), “effective in reducing plaque formation”.

With `Oc1cc(Cl)ccc1Oc1ccc(Cl)cc1Cl` [TCHE, 2,4,4'-trichloro-2'-hydroxydiphenyl ether], the “Minimum Inhibition Concentration (MIC), Bacteriodes intermedius” value amounted to 2.5 µg/mL with Bacteriodes intermedius (0.5% TCHE and 1% SLS in water); 2.5 µg/mL in the test with Bacteriodes intermedius (setting [6]). Further, the “compatibility in dentifrice composition” value in the test with Bacteriodes gingivalis [2] is on record as “compatible”. The “Minimum Inhibition Concentration (MIC), Streptococcus mutans” value with Streptococcus mutans (0.5% TCHE and 1% SLS in water) turned out to be 25.0 µg/mL; in the test with Streptococcus mutans (setting [6]), 25.0 µg/mL. The “Minimum Inhibition Concentration (MIC), Bacteriodes gingivalis” value with Bacteriodes gingivalis [3] (0.5% TCHE and 1% SLS in water) was 2.5 µg/mL; with Bacteriodes gingivalis [3] (setting [6]) it was 2.5 µg/mL. The “Minimum Inhibition Concentration (MIC), Actinobacillus actinomycetemcomitans” value was 5.0 µg/mL in test [4] (0.5% TCHE and 1% SLS in water); 5.0 µg/mL in test [4] (setting [6]).

`CCCCCCCCCCCCOS(=O)(=O)[O-].[Na+]` [SLS, sodium lauryl sulfate]: the “antibacterial effect” value in test [5] is “ineffective”.
